Measurements taken from patent publication US20250066835A1 (priority 2021, published 2025).

Columns and labels:
Format in all cases: cell-based
[1] = tested on: colistin-sensitive Pseudomonas aeruginosa strain; assay: PTA staining / SEM backscattered electron image analysis of colistin-treated bacteria over time (FIG. 7); settings: colistin 2 mg/L, 37°C, initial concentration 10^6/ml
Protocol: (§1) A Pseudomonas aeruginosa strain whose colistin sensitivity is known from an MIC value measured by a method of related art and a Pseudomonas aeruginosa strain whose colistin resistance is known are used. A bacterial solution suspended in a medium at initial concentration of 10^6/ml is treated with colistin of 2 mg/L, which is concentration that distinguishes between sensitive bacteria and resistant bacteria by the method of related art, is treated and cultured at 37° C., and a certain amount of the bacterial solution is sampled over time.
A polycarbonate track-etched membrane having a hole diameter of 0.2 μm is used as specimen equipment for the SEM observation of bacteria, and bacteria are uniformly collected in a certain area on the membrane. Conductivity is given to the specimen by pre-vaporizing platinum-palladium on a surface of the membrane.
After washing a medium component on a bacterial collection surface with physiological saline, bacteria are treated and fixed for 5 minutes with a glutaraldehyde fixing solution of 2.5% having a protein cross-linking effect in order to prevent the morphological change of the bacteria. After washing the excess fixing solution with water, the bacteria are treated with the PTA aqueous solution having the weight concentration of 10% for 2 minutes and stained. After washing the excess stain with water, the bacteria are dried on the track-etched membrane to form a specimen for the SEM observation.
SEM observation conditions are set to an acceleration voltage of 5 kV, backscattered electron detection, and magnification of 7,000 times. […]
(§2) Next, SEM observation is performed on each specimen from which the series of backscattered electron image (701) is obtained and a specimen in the control group prepared at the same timing, and twenty-five images per specimen and images of 300 to 500 bacterial cells are acquired. The number of images taken and the number of bacterial cells to be imaged are not limited to the above-described number as long as reproducibility of quantitative analysis can be ensured. […]

[2] = tested on: colistin-resistant Pseudomonas aeruginosa strain; assay: PTA staining / SEM backscattered electron image analysis of colistin-treated bacteria over time; settings: colistin 2 mg/L, 37°C, after 60 minutes
Protocol: as §1
A polycarbonate track-etched membrane having a hole diameter of 0.2 μm is used as specimen equipment for the SEM observation of bacteria, and bacteria are uniformly collected in a certain area on the membrane. Conductivity is given to the specimen by pre-vaporizing platinum-palladium on a surface of the membrane. […]
as §2

[3] = tested on: Pseudomonas aeruginosa strain; assay: Electronic staining with PTA aqueous solution and SEM observation after antibacterial agent treatment (FIG. 6); settings: cultured at 37°C for 30 minutes, 10% PTA aqueous solution, 5 kV backscattered electron image
Protocol: As an example, in FIG. 6, a Pseudomonas aeruginosa strain is used as a material, bacteria in a control group not treated with the antibacterial agent and bacteria in a test group treated with antibacterial agent colistin are cultured at 37° C. for 30 minutes, the bacteria are collected on a track-etched membrane and fixed with glutaraldehyde of 2.5%, a specimen is prepared by performing electronic staining for 2 minutes by using a PTA aqueous solution having weight concentration of 10% as a stain and a platinum blue aqueous solution as a comparison, and a backscattered electron image is obtained by SEM observation at an acceleration voltage of 5 kV.
In the specimen stained with the PTA aqueous solution, an image of bacteria having low image brightness is observed in the control group, and an image of bacteria having high image brightness is observed in the test group. On the other hand, in the specimen stained with the platinum blue aqueous solution, the image brightness of the bacteria in both the control group and the test group is high, and no significant difference is observed between the control group and the test group.

**Q.** What does the source list for colistin?
**A.** ratio of the microbe 1 (corresponds to viability) ([1]; after 8 minutes): 80%; ratio of the microbe 1 (corresponds to viability) ([1]; after 30 minutes): 60%; ratio of the microbe 1 (corresponds to viability) ([1]; after 60 minutes): 0%; ratio of the microbe 1 (corresponds to viability) [2]: about 95%; PTA staining intensity / image brightness of treated bacteria [3]: strong PTA staining
